# Measurements: ChEMBL document CHEMBL3045187, “Chemical weed control in seedbed sown onion (Allium cepa L.)” (Crop Prot, 2006)
# How the values were obtained:
# Cyperus rotundus [1] = experiment: Herbicidal activity against Cyperus rotundus assessed as total fresh weight at 2.5 kg/ha applied as spray before seed sowing (reference value: 23.6 MT/ha); format: functional
# Malva sylvestris [2] = experiment: Herbicidal activity against Malva sylvestris assessed as total fresh weight at 2.5 kg/ha applied as spray before seed sowing (reference value: 23.6 MT/ha); format: functional
# Allium cepa [3] = experiment: Phytotoxicity in Allium cepa (onion) seedling assessed as total fresh weight at 2.5 kg/ha applied as spray before seed sowing (reference value: 7.71 MT/ha); format: organism-based; details: in vivo, other
# Malva sylvestris [4] = experiment: Herbicidal activity against Malva sylvestris assessed as total dry weight at 2.5 kg/ha applied as spray before seed sowing (reference value: 4.1 MT/ha); format: functional
# Cyperus rotundus [5] = experiment: Herbicidal activity against Cyperus rotundus assessed as total dry weight at 2.5 kg/ha applied as spray before seed sowing (reference value: 4.1 MT/ha); format: functional
# Chenopodiastrum murale [6] = experiment: Herbicidal activity against Chenopodium murale assessed as total fresh weight at 2.5 kg/ha applied as spray before seed sowing (reference value: 23.6 MT/ha); format: functional
# Chenopodiastrum murale [7] = experiment: Herbicidal activity against Chenopodium murale assessed as total dry weight at 2.5 kg/ha applied as spray before seed sowing (reference value: 4.1 MT/ha); format: functional
# Cyperus rotundus [8] = experiment: Herbicidal activity against Cyperus rotundus assessed as total fresh weight at 1.5 kg/ha applied as spray before seed sowing (reference value: 23.6 MT/ha); format: functional; details: pooled result: one value given for 3 cell lines, strains, targets or settings
# Cyperus rotundus [9] = experiment: Herbicidal activity against Cyperus rotundus assessed as total dry weight at 1.5 kg/ha applied as spray before seed sowing (reference value: 4.1 MT/ha); format: functional; details: pooled result: one value given for 3 cell lines, strains, targets or settings
# Allium cepa [10] = experiment: Phytotoxicity in Allium cepa (onion) seedling assessed as total fresh weight at 1.5 kg/ha applied as spray before seed sowing (reference value: 7.71 MT/ha); format: organism-based; details: in vivo, other
# Cyperus rotundus [11] = experiment: Herbicidal activity against Cyperus rotundus assessed as total dry weight at 3.2 kg/ha applied as spray before seed sowing (reference value: 4.1 MT/ha); format: functional
# Chenopodiastrum murale [12] = experiment: Herbicidal activity against Chenopodium murale assessed as total fresh weight at 3.2 kg/ha applied as spray before seed sowing (reference value: 23.6 MT/ha); format: functional
# Chenopodiastrum murale [13] = experiment: Herbicidal activity against Chenopodium murale assessed as total dry weight at 3.2 kg/ha applied as spray before seed sowing (reference value: 4.1 MT/ha); format: functional
# Malva sylvestris [14] = experiment: Herbicidal activity against Malva sylvestris assessed as total dry weight at 3.2 kg/ha applied as spray before seed sowing (reference value: 4.1 MT/ha); format: functional
# Allium cepa [15] = experiment: Phytotoxicity in Allium cepa (onion) seedling assessed as total fresh weight at 3.2 kg/ha applied as spray before seed sowing (reference value: 7.71 MT/ha); format: organism-based; details: in vivo, other
# Malva sylvestris [16] = experiment: Herbicidal activity against Malva sylvestris assessed as total fresh weight at 3.2 kg/ha applied as spray before seed sowing (reference value: 23.6 MT/ha); format: functional
# Cyperus rotundus [17] = experiment: Herbicidal activity against Cyperus rotundus assessed as total fresh weight at 3.2 kg/ha applied as spray before seed sowing (reference value: 23.6 MT/ha); format: functional
# Allium cepa [18] = experiment: Phytotoxicity in Allium cepa (onion) seedling assessed as total fresh weight at 0.1 kg/ha applied as spray during postemergence (reference value: 7.71 MT/ha); format: organism-based; details: in vivo, other
# Cyperus rotundus [19] = experiment: Herbicidal activity against Cyperus rotundus assessed as total fresh weight at 0.1 kg/ha applied as spray during post-emergence (reference value: 23.6 MT/ha); format: functional
# Malva sylvestris [20] = experiment: Herbicidal activity against Malva sylvestris assessed as total dry weight at 0.1 kg/ha applied as spray during post-emergence (reference value: 4.1 MT/ha); format: functional
# Chenopodiastrum murale [21] = experiment: Herbicidal activity against Chenopodium murale assessed as total fresh weight at 0.1 kg/ha applied as spray during postemergence (reference value: 23.6 MT/ha); format: functional
# Malva sylvestris [22] = experiment: Herbicidal activity against Malva sylvestris assessed as total fresh weight at 0.1 kg/ha applied as spray during post-emergence (reference value: 23.6 MT/ha); format: functional
# Chenopodiastrum murale [23] = experiment: Herbicidal activity against Chenopodium murale assessed as total dry weight at 0.1 kg/ha applied as spray during postemergence (reference value: 4.1 MT/ha); format: functional
# Cyperus rotundus [24] = experiment: Herbicidal activity against Cyperus rotundus assessed as total dry weight at 0.1 kg/ha applied as spray during post-emergence (reference value: 4.1 MT/ha); format: functional
# Cyperus rotundus [25] = experiment: Herbicidal activity against Cyperus rotundus assessed as total dry weight at 0.86 kg/ha applied as spray before seed sowing (reference value: 4.1 MT/ha); format: functional
# Malva sylvestris [26] = experiment: Herbicidal activity against Malva sylvestris assessed as total dry weight at 0.86 kg/ha applied as spray before seed sowing (reference value: 4.1 MT/ha); format: functional
# Allium cepa [27] = experiment: Phytotoxicity in Allium cepa (onion) seedling assessed as total fresh weight at 0.86 kg/ha applied as spray before seed sowing (reference value: 7.71 MT/ha); format: organism-based; details: in vivo, other
# Chenopodiastrum murale [28] = experiment: Herbicidal activity against Chenopodium murale assessed as total fresh weight at 0.86 kg/ha applied as spray before seed sowing (reference value: 23.6 MT/ha); format: functional
# Cyperus rotundus [29] = experiment: Herbicidal activity against Cyperus rotundus assessed as total fresh weight at 0.86 kg/ha applied as spray before seed sowing (reference value: 23.6 MT/ha); format: functional
# Chenopodiastrum murale [30] = experiment: Herbicidal activity against Chenopodium murale assessed as total dry weight at 0.86 kg/ha applied as spray before seed sowing (reference value: 4.1 MT/ha); format: functional
# Malva sylvestris [31] = experiment: Herbicidal activity against Malva sylvestris assessed as total fresh weight at 0.86 kg/ha applied as spray before seed sowing (reference value: 23.6 MT/ha); format: functional
smiles,measurement,setting,value
CSc1nc(NC(C)C)nc(NC(C)C)n1 [PROMETRYN],Activity,Cyperus rotundus [1],19.8 MT/ha
same,Activity,Malva sylvestris [2],19.8 MT/ha
same,Activity,Allium cepa [3],3.67 MT/ha
same,Activity,Malva sylvestris [4],3.81 MT/ha
same,Activity,Cyperus rotundus [5],3.81 MT/ha
same,Activity,Chenopodiastrum murale [6],19.8 MT/ha
same,Activity,Chenopodiastrum murale [7],3.81 MT/ha
C#CC(C)(C)NC(=O)c1cc(Cl)cc(Cl)c1 [PRONAMIDE],Activity,Cyperus rotundus [8],20.5 MT/ha
same,Activity,Cyperus rotundus [9],3.61 MT/ha
same,Activity,Allium cepa [10],6.67 MT/ha
Nc1cnn(-c2ccccc2)c(=O)c1Cl [PYRAZON],Activity,Cyperus rotundus [11],1.94 MT/ha
same,Activity,Chenopodiastrum murale [12],9.5 MT/ha
same,Activity,Chenopodiastrum murale [13],1.94 MT/ha
same,Activity,Malva sylvestris [14],1.94 MT/ha
same,Activity,Allium cepa [15],6.68 MT/ha
same,Activity,Malva sylvestris [16],9.5 MT/ha
same,Activity,Cyperus rotundus [17],9.5 MT/ha
CCOC(=O)C(C)Oc1ccc(Oc2cnc3cc(Cl)ccc3n2)cc1 (stereo unspecified) [QUIZALOFOP ETHYL ESTER],Activity,Allium cepa [18],10.11 MT/ha
same,Activity,Cyperus rotundus [19],10.7 MT/ha
same,Activity,Malva sylvestris [20],2.52 MT/ha
same,Activity,Chenopodiastrum murale [21],10.7 MT/ha
same,Activity,Malva sylvestris [22],10.7 MT/ha
same,Activity,Chenopodiastrum murale [23],2.52 MT/ha
same,Activity,Cyperus rotundus [24],2.52 MT/ha
CCCN(CCC)c1c([N+](=O)[O-])cc(C(F)(F)F)cc1[N+](=O)[O-] [TRIFLURALIN],Activity,Cyperus rotundus [25],2.69 MT/ha
same,Activity,Malva sylvestris [26],2.69 MT/ha
same,Activity,Allium cepa [27],7.04 MT/ha
same,Activity,Chenopodiastrum murale [28],14.8 MT/ha
same,Activity,Cyperus rotundus [29],14.8 MT/ha
same,Activity,Chenopodiastrum murale [30],2.69 MT/ha
same,Activity,Malva sylvestris [31],14.8 MT/ha
